US20110124564A1, “NUCLEOLIN-BINDING PEPTIDES, NUCLEOLIN- BINDING LYTIC PEPTIDES, FUSION CONSTRUCTS AND METHODS OF MAKING AND USING SAME” (ESPERANCE PHARMACEUTICALS, INC., published 2011)
“And” between values parts separate entries of the source, which are not always exact repeats. Identical values can stand only once. Like-named read-outs stand apart in the source and are kept apart here. Residues, ends and D or L forms follow the SMILES beside them.

Legend:
[1] = system: MDA-MB-435S breast cancer cells; type: cell-based, human
Experimental: Twelve different fusion constructs were analyzed for anti-cancer activity in vitro against MDA-MB-435S breast cancer cells and for hemolytic activity in vitro to human red blood cells. Fusion constructs of the following sequence were tested:
The peptide conjugates were freshly dissolved in saline and added into cancer cell seeded multi-well plates at increasing concentrations of 0, 0.001, 0.01, 0.1, 1, 2, 5, 10 and 100 μM. Incubations were conducted for 4 h at 37° C. Cell viability was determined using formazan conversion assays (MTT assays). Controls were treated with USP saline or 0.1% TritonX-100™ as reference for 0 and 100% cell death, respectively. Cytotoxicity was evaluated as an IC50 value.

human red blood cells = assay: Hemolytic activity; type: cell-based
Experimental: Hemolytic activity was studied by incubating the fusion constructs with human red blood cells at concentrations of 0.01, 0.1, 1, 10 and 50 μM for 2 hours. Saline and 0.1% Triton served as controls.
Hemolytic activity of the compounds was studied by incubating EP-301 and EP-302 with human red blood cells at concentrations of 0.01, 0.1, 1, 10 and 50 μM for 2 hours.

[2] = biological target: nucleolin expressed on the surface of human cancer cell lines (human, UniProt P19338); assay: cell-based or functional assay
[3] = MDA-MB-435S, 4 h at 37° C, MTT, read-out: IC50

Molecule	IC50 ([1]; 4 h)	IC50 of cytotoxicity (MTT), MDA-MB-435S breast cancer cells, 4 h [2]	other results
CC(C)C[C@H](NC(=O)[C@H](CCCNC(=N)N)NC(=O)[C@H](C)NC(=O)[C@H](Cc1ccccc1)NC(=O)[C@H](CCCCN)NC(=O)[C@H](C)NC(=O)[C@H](Cc1ccccc1)NC(=O)[C@H](CCCCN)NC(=O)[C@H](CCCCN)NC(=O)[C@H](C)NC(=O)[C@H](Cc1ccccc1)NC(=O)[C@H](CCCCN)NC(=O)[C@H](C)NC(=O)[C@H](Cc1ccccc1)NC(=O)[C@H](CCCCN)NC(=O)[C@H](CCCCN)NC(=O)[C@H](C)NC(=O)[C@H](Cc1ccccc1)NC(=O)[C@H](CCCCN)NC(=O)[C@H](C)NC(=O)[C@H](Cc1ccccc1)NC(=O)[C@@H](N)CCCCN)C(=O)N[C@@H](Cc1ccccc1)C(=O)N[C@@H](C)C(=O)N[C@@H](CCCCN)C(=O)O (H-KFAKFAKKFAKFAKKFAKFARLFAK-OH)	–	–	IC50 [1, 3]: 1.23 ± 0.7 µM; HA50 (human red blood cells; human red blood cells, 2 hours): 14.3 µM and 14.3 ± 2.1 µM
CC(C)C[C@H](NC(=O)[C@H](CCCNC(=N)N)NC(=O)[C@H](C)NC(=O)[C@H](CO)NC(=O)[C@H](CCCNC(=N)N)NC(=O)[C@H](CCCNC(=N)N)NC(=O)[C@H](CCC(N)=O)NC(=O)[C@@H]1CCCN1C(=O)[C@H](C)NC(=O)[C@H](CCCNC(=N)N)NC(=O)[C@H](CCCCN)NC(=O)[C@H](CCCCN)NC(=O)[C@H](C)NC(=O)[C@H](Cc1ccccc1)NC(=O)[C@H](CCCCN)NC(=O)[C@H](CCCCN)NC(=O)[C@H](C)NC(=O)[C@H](Cc1ccccc1)NC(=O)[C@H](CCCCN)NC(=O)[C@H](C)NC(=O)[C@H](Cc1ccccc1)NC(=O)[C@H](CCCCN)NC(=O)[C@H](CCCCN)NC(=O)[C@H](C)NC(=O)[C@H](Cc1ccccc1)NC(=O)[C@H](CCCCN)NC(=O)[C@H](C)NC(=O)[C@H](Cc1ccccc1)NC(=O)[C@@H](N)CCCCN)C(=O)N[C@@H](CO)C(=O)N[C@@H](C)C(=O)N[C@@H](CCCCN)C(=O)O (H-KFAKFAKKFAKFAKKFAKKRAPQRRSARLSAK-OH; N-terminus and C-terminus assumed)	7.3 µM	–	HA50 (human red blood cells): Not hemolytic
CC(C)C[C@H](NC(=O)[C@H](CCCNC(=N)N)NC(=O)[C@H](C)NC(=O)[C@H](CCCNC(=N)N)NC(=O)[C@H](CCCCN)NC(=O)[C@H](C)NC(=O)[C@H](Cc1ccccc1)NC(=O)[C@H](CCCCN)NC(=O)[C@H](CCCCN)NC(=O)[C@H](C)NC(=O)[C@H](Cc1ccccc1)NC(=O)[C@H](CCCCN)NC(=O)[C@H](C)NC(=O)[C@H](Cc1ccccc1)NC(=O)[C@H](CCCCN)NC(=O)[C@H](CCCCN)NC(=O)[C@H](C)NC(=O)[C@H](Cc1ccccc1)NC(=O)[C@H](CCCCN)NC(=O)[C@H](C)NC(=O)[C@H](Cc1ccccc1)NC(=O)[C@@H](N)CCCCN)C(=O)N[C@@H](CCC(N)=O)C(=O)O (H-KFAKFAKKFAKFAKKFAKRARLQ-OH)	3.6 µM	–	–
CC(C)C[C@H](NC(=O)[C@H](CCCNC(=N)N)NC(=O)[C@H](C)NC(=O)[C@H](CCCNC(=N)N)NC(=O)[C@H](CCCCN)NC(=O)[C@H](C)NC(=O)[C@H](Cc1ccccc1)NC(=O)[C@H](CCCCN)NC(=O)[C@H](CCCCN)NC(=O)[C@H](C)NC(=O)[C@H](Cc1ccccc1)NC(=O)[C@H](CCCCN)NC(=O)[C@H](C)NC(=O)[C@H](Cc1ccccc1)NC(=O)[C@H](CCCCN)NC(=O)[C@H](CCCCN)NC(=O)[C@H](C)NC(=O)[C@H](Cc1ccccc1)NC(=O)[C@H](CCCCN)NC(=O)[C@H](C)NC(=O)[C@H](Cc1ccccc1)NC(=O)[C@@H](N)CCCCN)C(=O)N[C@@H](CCC(N)=O)C(=O)N[C@@H](CCCNC(=N)N)C(=O)N[C@@H](CCCNC(=N)N)C(=O)O (H-KFAKFAKKFAKFAKKFAKRARLQRR-OH)	1.6 ± 0.05 µM	–	HA50 (human red blood cells): Not hemolytic
CC(C)C[C@H](NC(=O)[C@H](CCCNC(=N)N)NC(=O)[C@H](C)NC(=O)[C@H](CCCNC(=N)N)NC(=O)[C@H](CCCCN)NC(=O)[C@H](C)NC(=O)[C@H](Cc1ccccc1)NC(=O)[C@H](CCCCN)NC(=O)[C@H](CCCCN)NC(=O)[C@H](C)NC(=O)[C@H](Cc1ccccc1)NC(=O)[C@H](CCCCN)NC(=O)[C@H](C)NC(=O)[C@H](Cc1ccccc1)NC(=O)[C@H](CCCCN)NC(=O)[C@H](CCCCN)NC(=O)[C@H](C)NC(=O)[C@H](Cc1ccccc1)NC(=O)[C@H](CCCCN)NC(=O)[C@H](C)NC(=O)[C@H](Cc1ccccc1)NC(=O)[C@@H](N)CCCCN)C(=O)N[C@@H](CCC(N)=O)C(=O)N[C@@H](CCCNC(=N)N)C(=O)N[C@@H](CCCNC(=N)N)C(=O)N[C@@H](Cc1ccccc1)C(=O)O (H-KFAKFAKKFAKFAKKFAKRARLQRRF-OH)	0.87 ± 0.003 µM	–	HA50 (human red blood cells): Not hemolytic
CC(C)C[C@H](NC(=O)[C@H](CCCNC(=N)N)NC(=O)[C@H](C)NC(=O)[C@H](Cc1ccccc1)NC(=O)[C@H](CCCNC(=N)N)NC(=O)[C@H](CCCNC(=N)N)NC(=O)[C@H](CCC(N)=O)NC(=O)[C@H](CC(C)C)NC(=O)[C@H](CCCNC(=N)N)NC(=O)[C@H](CCCCN)NC(=O)[C@H](C)NC(=O)[C@H](Cc1ccccc1)NC(=O)[C@H](CCCCN)NC(=O)[C@H](CCCCN)NC(=O)[C@H](C)NC(=O)[C@H](Cc1ccccc1)NC(=O)[C@H](CCCCN)NC(=O)[C@H](C)NC(=O)[C@H](Cc1ccccc1)NC(=O)[C@H](CCCCN)NC(=O)[C@H](CCCCN)NC(=O)[C@H](C)NC(=O)[C@H](Cc1ccccc1)NC(=O)[C@H](CCCCN)NC(=O)[C@H](C)NC(=O)[C@H](Cc1ccccc1)NC(=O)[C@@H](N)CCCCN)C(=O)N[C@@H](Cc1ccccc1)C(=O)N[C@@H](C)C(=O)N[C@@H](CCCCN)C(=O)O (H-KFAKFAKKFAKFAKKFAKRLQRRFARLFAK-OH)	–	–	IC50 [1, 3]: 0.74 ± 0.12 µM
CC(C)C[C@H](NC(=O)[C@H](CCCNC(=N)N)NC(=O)[C@H](C)NC(=O)[C@H](CO)NC(=O)[C@H](CCCCN)NC(=O)[C@H](C)NC(=O)[C@H](Cc1ccccc1)NC(=O)[C@H](CCCCN)NC(=O)[C@H](CCCCN)NC(=O)[C@H](C)NC(=O)[C@H](Cc1ccccc1)NC(=O)[C@H](CCCCN)NC(=O)[C@H](C)NC(=O)[C@H](Cc1ccccc1)NC(=O)[C@H](CCCCN)NC(=O)[C@H](CCCCN)NC(=O)[C@H](C)NC(=O)[C@H](Cc1ccccc1)NC(=O)[C@H](CCCCN)NC(=O)[C@H](C)NC(=O)[C@H](Cc1ccccc1)NC(=O)[C@@H](N)CCCCN)C(=O)N[C@@H](CO)C(=O)N[C@@H](C)C(=O)N[C@@H](CCCCN)C(=O)O (H-KFAKFAKKFAKFAKKFAKSARLSAK-OH)	4.1 µM	–	–
CC(C)C[C@H](NC(=O)[C@H](CCCNC(=N)N)NC(=O)[C@H](C)NC(=O)[C@H](Cc1ccccc1)NC(=O)[C@H](CCCNC(=N)N)NC(=O)[C@H](CCCNC(=N)N)NC(=O)[C@H](CCC(N)=O)NC(=O)[C@H](CC(C)C)NC(=O)[C@H](CCCNC(=N)N)NC(=O)[C@H](C)NC(=O)[C@@H](NC(=O)[C@H](CCCCN)NC(=O)[C@H](C)NC(=O)[C@H](Cc1ccccc1)NC(=O)[C@H](CCCCN)NC(=O)[C@H](CCCCN)NC(=O)[C@H](C)NC(=O)[C@H](Cc1ccccc1)NC(=O)[C@H](CCCCN)NC(=O)[C@H](C)NC(=O)[C@H](Cc1ccccc1)NC(=O)[C@H](CCCCN)NC(=O)[C@H](CCCCN)NC(=O)[C@H](C)NC(=O)[C@H](Cc1ccccc1)NC(=O)[C@H](CCCCN)NC(=O)[C@H](C)NC(=O)[C@H](Cc1ccccc1)NC(=O)[C@@H](N)CCCCN)C(C)C)C(=O)N[C@@H](Cc1ccccc1)C(=O)N[C@@H](C)C(=O)N[C@@H](CCCCN)C(=O)O (H-KFAKFAKKFAKFAKKFAKVARLQRRFARLFAK-OH)	0.4 ± 0.002 µM	–	–
KFAKFAKKFAKFAKKFAKVARLQRRFARLFAK [KFAKFAKKFAKFAKKFAKV19ARLQRRFARLFAK32]	–	0.4 µM	–
KFAKFAKKFAKFAKKFAKKRAPQRRSARLSAK [KFAKFAKKFAKFAKKFAKK19RAPQRRSARLSAK32]	–	7.3 µM	–
KFAKFAKKFAKFAKKFAKRARLQRRF [KFAKFAKKFAKFAKKFAKR19ARLQRRF26]	–	0.87 µM	–
KFAKFAKKFAKFAKKFAKRLQRRFARLFAK [KFAKFAKKFAKFAKKFAKR19LQRRFARLFAK30]	–	0.74 µM	–
KFAKFAKKFAKFAKKFAKSARLSAK [KFAKFAKKFAKFAKKFAKS19ARLSAK25]	–	4.1 µM	–
KFAKFAKKFAKFAKKFAKRARLQRR [KFAKFAKKFAKFAKKFAKR19ARLQRR25]	–	1.6 µM	–
KFAKFAKKFAKFAKKFAKRARLQ [KFAKFAKKFAKFAKKFAKR19ARLQ23]	–	3.6 µM	–
KFAKFAKKFAKFAKKFAKRLQRRSARLSAK [KFAKFAKKFAKFAKKFAKR19LQRRSARLSAK30]	–	2.2 µM	–
KFAKFAKKFAKFAKKFAKVARLQRRFA [KFAKFAKKFAKFAKKFAKV19ARLQRRFA27]	–	0.8 µM	–
KFAKFAKKFAKFAKKFAKFARLFAK [KFAKFAKKFAKFAKKFAKF19ARLFAK25]	–	1.23 µM	–
